ChEMBL document CHEMBL1147095, “Chromosome-encoded narrow-spectrum Ambler class A beta-lactamase GIL-1 from Citrobacter gillenii” (Antimicrob Agents Chemother, 2007)
≈ marks a conversion by molar mass, not a printed value.

Legend:
[1] = molecular target: T1, Gil1 (Citrobacter gillenii) (UniProt A4KCT8); test: Ratio of kcat to Km of Citrobacter gillenii CIP 106783 Beta-lactamase GIL1 expressed in Escherichia coli DH10B relative to benzyl-penicillin; design: unit not given here
T1 sequence (whole entry): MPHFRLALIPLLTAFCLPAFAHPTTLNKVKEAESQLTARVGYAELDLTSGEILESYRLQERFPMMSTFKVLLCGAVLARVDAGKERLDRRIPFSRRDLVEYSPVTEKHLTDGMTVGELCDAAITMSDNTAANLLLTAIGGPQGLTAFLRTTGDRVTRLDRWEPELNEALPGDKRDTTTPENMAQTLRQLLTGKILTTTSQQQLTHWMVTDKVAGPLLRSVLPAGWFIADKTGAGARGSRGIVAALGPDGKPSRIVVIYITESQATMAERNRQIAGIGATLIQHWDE

Citrobacter gillenii = test: Antimicrobial activity against Citrobacter gillenii CIP 106783 after 18 hrs by […]; type: functional; conditions: CIP 106783, 18 h
Escherichia coli [2] = test: Antimicrobial activity against Escherichia coli DH10B expressing GIL1 after 18 hrs by […]; type: functional
Escherichia coli [3] = test: Antimicrobial activity against Escherichia coli DH10B after 18 hrs by […]; type: functional
[4] = substrate: CC1(C)S[C@@H]2[C@H](NC(=O)[C@H](N)c3ccc(O)cc3)C(=O)N2[C@H]1C(=O)O; test: (§1) Activity of Citrobacter gillenii CIP 106783 Beta-lactamase GIL1 expressed in Escherichia coli DH10B
[5] = substrate: CO/N=C(\C(=O)N[C@@H]1C(=O)N2C(C(=O)[O-])=C(C[N+]3(C)CCCC3)CS[C@H]12)c1csc(N)n1; test: as §1
[6] = substrate: CO/N=C(\C(=O)N[C@@H]1C(=O)N2C(C(=O)[O-])=C(C[n+]3cccc4c3CCC4)CS[C@H]12)c1csc(N)n1; test: as §1
[7] = substrate: CC1(C)S[C@@H]2[C@H](NC(=O)Cc3ccccc3)C(=O)N2[C@H]1C(=O)O; test: as §1
[8] = substrate: CCN1CCN(C(=O)N[C@@H](C(=O)N[C@@H]2C(=O)N3[C@@H]2SC(C)(C)[C@@H]3C(=O)O)c2ccccc2)C(=O)C1=O; test: as §1
[9] = substrate: C[C@H]1[C@H](NC(=O)/C(=N\OC(C)(C)C(=O)O)c2csc(N)n2)C(=O)N1S(=O)(=O)O; test: as §1
[10] = substrate: CC(C)(O/N=C(\C(=O)N[C@@H]1C(=O)N2C(C(=O)[O-])=C(C[n+]3ccccc3)CS[C@H]12)c1csc(N)n1)C(=O)O; test: as §1
[11] = substrate: C[C@@H](O)[C@H]1C(=O)N2C(C(=O)O)=C(SCCNC=N)C[C@H]12; test: as §1
[12] = substrate: CC1(C)S[C@@H]2[C@H](NC(=O)[C@H](C(=O)O)c3ccsc3)C(=O)N2[C@H]1C(=O)O; test: as §1
[13] = substrate: CC(=O)OCC1=C(C(=O)O)N2C(=O)[C@@H](NC(=O)Cc3cccs3)[C@H]2SC1; test: as §1
[14] = substrate: CO/N=C(\C(=O)N[C@@H]1C(=O)N2C(C(=O)O)=C(COC(C)=O)CS[C@H]12)c1csc(N)n1; test: as §1
[15] = substrate: CO/N=C(\C(=O)N[C@@H]1C(=O)N2C(C(=O)O)=C(COC(N)=O)CS[C@H]12)c1ccco1; test: as §1

Q: `CO/N=C(\C(=O)N[C@@H]1C(=O)N2C(C(=O)[O-])=C(C[N+]3(C)CCCC3)CS[C@H]12)c1csc(N)n1` was tested. Which Ratio [1] did it give?
A: 0.5

Q: What about the MIC (Citrobacter gillenii) of the same molecule?
A: 0.06 µg/mL (≈ 0.125 µM)

Q: What about the MIC (Escherichia coli [2]) of the same molecule?
A: 0.12 µg/mL (≈ 0.25 µM)

Q: `CC1(C)S[C@@H]2[C@H](NC(=O)Cc3ccccc3)C(=O)N2[C@H]1C(=O)O` was tested. Which Ratio [1] did it give?
A: 100

Q: Which results are given for `CC1(C)S[C@@H]2[C@H](NC(=O)[C@H](N)c3ccc(O)cc3)C(=O)N2[C@H]1C(=O)O` [AMOXICILLIN]?
A: Ratio [1]: 81; MIC (Escherichia coli [3]): 2 µg/mL (≈ 5.47 µM); MIC (Citrobacter gillenii): 16 µg/mL (≈ 43.8 µM); MIC (Escherichia coli [2]): > 512 µg/mL

Q: With `C[C@H]1[C@H](NC(=O)/C(=N\OC(C)(C)C(=O)O)c2csc(N)n2)C(=O)N1S(=O)(=O)O` [AZTREONAM] as the molecule, how does the Ratio [1] read?
A: 0.02

Q: What about the MIC (Citrobacter gillenii) of the same molecule?
A: 0.06 µg/mL (≈ 0.138 µM)

Q: And the MIC (Escherichia coli [2])?
A: 0.12 µg/mL (≈ 0.276 µM)

Q: `CO/N=C(\C(=O)N[C@@H]1C(=O)N2C(C(=O)O)=C(COC(C)=O)CS[C@H]12)c1csc(N)n1` [CEFOTAXIME] was tested. Which Ratio [1] did it give?
A: 0.2

Q: What about the MIC (Escherichia coli [3]) of the same molecule?
A: 0.06 µg/mL (≈ 0.132 µM)

Q: What about the MIC (Citrobacter gillenii) of the same molecule?
A: 0.06 µg/mL (≈ 0.132 µM)

Q: And the MIC (Escherichia coli [2])?
A: 1 µg/mL (≈ 2.2 µM)

Q: With `CO[C@@]1(NC(=O)Cc2cccs2)C(=O)N2C(C(=O)O)=C(COC(N)=O)CS[C@@H]21` [CEFOXITIN] as the molecule, how does the MIC (Escherichia coli [3]) read?
A: 2 µg/mL (≈ 4.68 µM)

Q: And the MIC (Citrobacter gillenii)?
A: 1 µg/mL (≈ 2.34 µM)

Q: And the MIC (Escherichia coli [2])?
A: 2 µg/mL (≈ 4.68 µM)

Q: Which Ratio [1] does the source give for `CO/N=C(\C(=O)N[C@@H]1C(=O)N2C(C(=O)[O-])=C(C[n+]3cccc4c3CCC4)CS[C@H]12)c1csc(N)n1` [CEFPIROME] here?
A: 1.9

Q: And the MIC (Escherichia coli [3])?
A: 0.06 µg/mL (≈ 0.117 µM)

Q: And the MIC (Citrobacter gillenii)?
A: 0.06 µg/mL (≈ 0.117 µM)

Q: And the MIC (Escherichia coli [2])?
A: 0.25 µg/mL (≈ 0.486 µM)

Q: What does the source list for `CC(C)(O/N=C(\C(=O)N[C@@H]1C(=O)N2C(C(=O)[O-])=C(C[n+]3ccccc3)CS[C@H]12)c1csc(N)n1)C(=O)O` [CEFTAZIDIME]?
A: Ratio [1]: 0.01; MIC (Escherichia coli [3]): 0.06 µg/mL (≈ 0.11 µM); MIC (Citrobacter gillenii): 0.06 µg/mL (≈ 0.11 µM); MIC (Escherichia coli [2]): 0.5 µg/mL (≈ 0.915 µM)

Q: Which results are given for `CO/N=C(\C(=O)N[C@@H]1C(=O)N2C(C(=O)O)=C(CSc3nc(=O)c(O)nn3C)CS[C@H]12)c1csc(N)n1` [CEFTRIAXONE]?
A: MIC (Escherichia coli [3]): 0.06 µg/mL (≈ 0.108 µM); MIC (Citrobacter gillenii): 0.06 µg/mL (≈ 0.108 µM); MIC (Escherichia coli [2]): 0.06 µg/mL (≈ 0.108 µM)

Q: Which results are given for `CO/N=C(\C(=O)N[C@@H]1C(=O)N2C(C(=O)O)=C(COC(N)=O)CS[C@H]12)c1ccco1` [CEFUROXIME]?
A: Ratio [1]: 0.4; MIC (Escherichia coli [3]): 2 µg/mL (≈ 4.71 µM); MIC (Citrobacter gillenii): 2 µg/mL (≈ 4.71 µM); MIC (Escherichia coli [2]): 8 µg/mL (≈ 18.9 µM)

Q: For `CC(=O)OCC1=C(C(=O)O)N2C(=O)[C@@H](NC(=O)Cc3cccs3)[C@H]2SC1` [CEPHALOTHIN], which Ratio [1] is on record?
A: 11

Q: What about the MIC (Escherichia coli [3]) of the same molecule?
A: 2 µg/mL (≈ 5.04 µM)

Q: And the MIC (Citrobacter gillenii)?
A: 2 µg/mL (≈ 5.04 µM)

Q: What about the MIC (Escherichia coli [2]) of the same molecule?
A: 8 µg/mL (≈ 20.2 µM)

Q: For `C[C@@H](O)[C@H]1C(=O)N2C(C(=O)O)=C(SCCNC=N)C[C@H]12` [IMIPENEM ANHYDROUS], which Ratio [1] is on record?
A: < 0.01

Q: What about the MIC (Citrobacter gillenii) of the same molecule?
A: 0.06 µg/mL (≈ 0.2 µM)

Q: Which results are given for `CO[C@@]1(NC(=O)C(C(=O)O)c2ccc(O)cc2)C(=O)N2C(C(=O)O)=C(CSc3nnnn3C)CO[C@@H]21` (stereo partly specified) [MOXALACTAM]?
A: MIC (Escherichia coli [3]): 0.12 µg/mL (≈ 0.231 µM); MIC (Citrobacter gillenii): 0.12 µg/mL (≈ 0.231 µM); MIC (Escherichia coli [2]): 0.25 µg/mL (≈ 0.48 µM)

Q: Which Ratio [1] does the source give for `CCN1CCN(C(=O)N[C@@H](C(=O)N[C@@H]2C(=O)N3[C@@H]2SC(C)(C)[C@@H]3C(=O)O)c2ccccc2)C(=O)C1=O` [PIPERACILLIN] here?
A: 61

Q: What about the MIC (Escherichia coli [3]) of the same molecule?
A: 1 µg/mL (≈ 1.93 µM)

Q: What about the MIC (Citrobacter gillenii) of the same molecule?
A: 2 µg/mL (≈ 3.86 µM)

Q: What about the MIC (Escherichia coli [2]) of the same molecule?
A: 32 µg/mL (≈ 61.8 µM)

Q: Which results are given for `CC1(C)S[C@@H]2[C@H](NC(=O)[C@H](C(=O)O)c3ccsc3)C(=O)N2[C@H]1C(=O)O` [TICARCILLIN]?
A: Ratio [1]: 180; MIC (Escherichia coli [3]): 1 µg/mL (≈ 2.6 µM); MIC (Citrobacter gillenii): 64 µg/mL (≈ 166 µM); MIC (Escherichia coli [2]): > 512 µg/mL

B1: Gil1 (Citrobacter gillenii), A4KCT8 (protein)
chain: MPHFRLALIPLLTAFCLPAFAHPTTLNKVKEAESQLTARVGYAELDLTSGEILESYRLQERFPMMSTFKVLLCGAVLARVDAGKERLDRRIPFSRRDLVEYSPVTEKHLTDGMTVGELCDAAITMSDNTAANLLLTAIGGPQGLTAFLRTTGDRVTRLDRWEPELNEALPGDKRDTTTPENMAQTLRQLLTGKILTTTSQQQLTHWMVTDKVAGPLLRSVLPAGWFIADKTGAGARGSRGIVAALGPDGKPSRIVVIYITESQATMAERNRQIAGIGATLIQHWDE
Q: For B1, which Km [4] is on record?
A: 84 µM

Q: What about the kcat [4] of the same molecule?
A: 381 s⁻¹

Q: What about the kcat/Km [4] of the same molecule?
A: 4.54e+06 M⁻¹ s⁻¹

Q: And the Km [5]?
A: 2680 µM

Q: What about the kcat [5] of the same molecule?
A: 77 s⁻¹

Q: What about the kcat/Km [5] of the same molecule?
A: 29000 M⁻¹ s⁻¹

Q: What about the Km [6] of the same molecule?
A: 304 µM

Q: What about the kcat [6] of the same molecule?
A: 32 s⁻¹

Q: What about the kcat/Km [6] of the same molecule?
A: 106000 M⁻¹ s⁻¹

Q: And the Km [7]?
A: 51 µM

Q: And the kcat [7]?
A: 286 s⁻¹

Q: And the kcat/Km [7]?
A: 5.6e+06 M⁻¹ s⁻¹

Q: And the Km [8]?
A: 90 µM

Q: What about the kcat [8] of the same molecule?
A: 306 s⁻¹

Q: What about the kcat/Km [8] of the same molecule?
A: 3.4e+06 M⁻¹ s⁻¹

Q: And the Km [9]?
A: 938 µM

Q: And the kcat [9]?
A: 0.8 s⁻¹

Q: What about the kcat/Km [9] of the same molecule?
A: 1000 M⁻¹ s⁻¹

Q: What about the Km [10] of the same molecule?
A: 1750 µM

Q: And the kcat [10]?
A: 1 s⁻¹

Q: What about the kcat/Km [10] of the same molecule?
A: 600 M⁻¹ s⁻¹

Q: What about the Km [11] of the same molecule?
A: 2980 µM

Q: What about the kcat [11] of the same molecule?
A: 0.2 s⁻¹

Q: And the kcat/Km [11]?
A: 500 M⁻¹ s⁻¹

Q: And the Km [12]?
A: 10 µM

Q: What about the kcat [12] of the same molecule?
A: 100 s⁻¹

Q: And the kcat/Km [12]?
A: 1e+07 M⁻¹ s⁻¹

Q: What about the Km [13] of the same molecule?
A: 62 µM

Q: What about the kcat [13] of the same molecule?
A: 37 s⁻¹

Q: And the kcat/Km [13]?
A: 598000 M⁻¹ s⁻¹

Q: And the Km [14]?
A: 714 µM

Q: What about the kcat [14] of the same molecule?
A: 7 s⁻¹

Q: And the kcat/Km [14]?
A: 10000 M⁻¹ s⁻¹

Q: And the Km [15]?
A: 88 µM

Q: And the kcat [15]?
A: 2 s⁻¹

Q: What about the kcat/Km [15] of the same molecule?
A: 23000 M⁻¹ s⁻¹
